Measurements from patent US9944986B2, “Therapeutic targets for Alzheimer's disease” (The University of Birmingham, priority 2012, dated 2018).

How the values were obtained:
brain [1] = assay: MSI imaging of brain sections (phosphatidylcholines, choline, creatine); type: in vivo; settings: SD rats, rapamycin 0.2 mg/kg i.p., ketamine 30 mg/kg i.p.
Procedure: (§1) There were three animals (n=3) in each group. Animals were sacrificed and the brain removed and frozen for imaging studies.
All MSI imaging experiments were performed on a Bruker ultrafleXtreme TOF/TOF mass spectrometer. For matrix evaluation, 4 serial sections of thickness 10 μm from sham control brain S2 were acquired using a Leica CM 1850 Cryostat and subsequently thaw mounted onto an ITO coated glass slide. Each section in turn was coated with 15 mL of 20 mg mL^−1 of CHCA in CH3OH, 0.1% TFA) using an artist airbrush while the remaining 2 sections were covered. Data were collected over the mass range m/z 60-1400. MSI experiments of a single section from each group (Rapa, Ket and Control) were conducted. […]. Images were acquired with a pixel size of 100 μm×100 μm.

brain [2] = assay: T2 weighted MRI of brain after mTOR inhibition/activation; type: in vivo; settings: SD rats; rapamycin 0.2 mg/kg i.p., ketamine 30 mg/kg i.p.; n=3
From the text: as §1

SMILES: CNC1(c2ccccc2Cl)CCCCC1=O (stereo not shown) [ketamine]
- phosphatidylcholine species in the brain (ion images) relative to control (brain [1]): clear differences induced by mTOR inhibition or activation
- choline levels in the brain (brain [1]; vs control): measureable changes
- creatine levels in the brain (brain [1]; vs control): measureable changes
- T2 weighted MRI images versus control animals (brain [2]): clear differences in the T2 weighted MRI images
